Paper PMC5774841, “High-level production and purification in a functional state of an extrasynaptic gamma-aminobutyric acid type A receptor containing α4β3δ subunits” (PLoS ONE, 2018)
Where two headings read alike, the source gives them in different places.

Legend:
α4β3N–Flag–δ GABAAR = biological target: T1, α4β3N–Flag–δ GABAAR (Homo sapiens, UniProt O14764+P28472+P48169); assay: Whole-cell patch-clamp of GABA-elicited currents in the induced α4β3N-Flag-δ cell line; type: cell-based; settings: for enhancement of maximum GABA elicited currents: drug 10 μM co-applied for 4 s, notch protocol
T1 construct: expressed in transfected cells
T1 sequence (P48169 36-554): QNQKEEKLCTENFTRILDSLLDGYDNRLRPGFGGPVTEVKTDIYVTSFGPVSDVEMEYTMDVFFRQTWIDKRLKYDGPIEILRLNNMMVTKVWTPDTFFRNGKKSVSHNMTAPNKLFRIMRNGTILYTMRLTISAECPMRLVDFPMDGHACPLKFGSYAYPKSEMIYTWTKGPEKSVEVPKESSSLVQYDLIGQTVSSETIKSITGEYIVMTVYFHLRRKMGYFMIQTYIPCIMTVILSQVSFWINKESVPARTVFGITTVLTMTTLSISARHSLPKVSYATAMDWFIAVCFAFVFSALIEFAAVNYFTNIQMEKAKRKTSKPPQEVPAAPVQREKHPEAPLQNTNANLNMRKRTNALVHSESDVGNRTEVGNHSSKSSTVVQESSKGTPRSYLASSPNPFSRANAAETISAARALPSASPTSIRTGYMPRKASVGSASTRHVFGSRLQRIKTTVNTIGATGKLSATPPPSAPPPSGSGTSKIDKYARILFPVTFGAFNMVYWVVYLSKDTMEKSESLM
T1 sequence (P28472 26-473 isoform P28472-2 limits assumed): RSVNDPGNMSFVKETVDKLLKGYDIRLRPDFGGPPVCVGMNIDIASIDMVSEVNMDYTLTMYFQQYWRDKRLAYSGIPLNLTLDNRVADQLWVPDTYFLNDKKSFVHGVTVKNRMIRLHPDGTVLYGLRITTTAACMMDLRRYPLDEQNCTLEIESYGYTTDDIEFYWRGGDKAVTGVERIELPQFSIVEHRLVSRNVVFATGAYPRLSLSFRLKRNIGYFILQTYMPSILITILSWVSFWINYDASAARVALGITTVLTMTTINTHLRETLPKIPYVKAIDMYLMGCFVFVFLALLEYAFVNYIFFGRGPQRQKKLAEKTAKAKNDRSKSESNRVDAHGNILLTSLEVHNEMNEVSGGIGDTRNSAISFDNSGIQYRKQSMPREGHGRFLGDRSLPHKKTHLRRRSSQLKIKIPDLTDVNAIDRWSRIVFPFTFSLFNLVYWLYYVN
T1 sequence (O14764 25-452): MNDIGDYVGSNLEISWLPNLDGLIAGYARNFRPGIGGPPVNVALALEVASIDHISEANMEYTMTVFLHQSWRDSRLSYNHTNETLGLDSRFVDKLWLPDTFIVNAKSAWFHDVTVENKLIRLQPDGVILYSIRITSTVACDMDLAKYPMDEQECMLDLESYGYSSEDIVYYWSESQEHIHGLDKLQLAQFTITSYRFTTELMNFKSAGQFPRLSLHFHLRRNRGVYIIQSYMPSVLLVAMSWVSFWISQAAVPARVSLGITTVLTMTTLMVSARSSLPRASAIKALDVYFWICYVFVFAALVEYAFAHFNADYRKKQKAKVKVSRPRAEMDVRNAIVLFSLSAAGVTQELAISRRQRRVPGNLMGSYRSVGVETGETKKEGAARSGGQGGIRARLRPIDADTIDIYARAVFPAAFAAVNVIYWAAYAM
Method: HEK 293 cells stably expressing tetracycline inducible α4β3N-Flag-δ or N-Flag-α4β3 GABAA receptors were cultured on glass coverslips and induced with tetracycline (2μg/ml) 24 hours before recordings. The coverslips were placed in a recording chamber and perfused with the bath solution. Cells were voltage clamped at -50 mV using the patch clamp amplifier (Axopatch 200A, Molecular Devices, Sunnyvale, CA). GABAA receptor-mediated chloride currents from HEK cells were recorded using the whole-cell configuration of patch-clamp electrophysiology. Data was acquired using Clampex version 8.1 (Molecular Devices), digitized at 10 kHz and filtered at 5 kHz. Current traces were analyzed using Clampfit version 9 (Molecular Devices). Series resistance ranged from 0.5–4 MΩ and cell capacitances from 9–18 pF. Membrane-capacitance and series-resistance were compensated electronically by > 85% with a lag of 10 μ seconds. Drugs were delivered via a multichannel superfusion pipette coupled to a piezoelectric elements that switched superfusion solution in < 1 millisecond. The recording chamber was continuously perfused with the bath solution in mM: 145 NaCl, 5 KCl, 10 HEPES, 2 CaCl2, and 1 MgCl2, 10 glucose, pH 7.4 (pH adjusted with N-methyl glucosamine). The pipette solution for whole-cell recordings contained in mM: 140 KCl, 10 HEPES, 1 EGTA and 2 MgCl2 at pH 7.3 (pH adjusted with KOH). Open pipette resistances ranged from 1.6–3 M. Errors are standard deviation from at least three replicas.
(§1) Statistical analysis for electrophysiology was done using GraphPad Prism 6. […] Analysis of the [^3H]muscimol binding was carried out using Igor Pro 7 (WaveMetrics). For Western blotting, the ratio of the signal intensity of individual antibodies for each sample was determined. Pooled (weighted) mean and standard deviation was determined for each receptor and p value determined by two-tailed unpaired Student’s t-test, using GraphPad QuickCalcs software.

N–Flag–α4β3 receptors = biological target: T2, N–Flag–α4β3 receptors (Homo sapiens, UniProt P28472+P48169); assay: Whole-cell patch-clamp of GABA-elicited currents in the control N-Flag-α4β3 cell line; type: cell-based; settings: drug 10 μM co-applied for 4 s, 10 mM GABA, notch protocol
T2 construct: expressed in transfected cells
T2 sequence (P48169 36-554): as the sequence (P48169 36-554) above
T2 sequence (P28472 26-473 isoform P28472-2 limits assumed): as the sequence (P28472 26-473 isoform P28472-2 limits assumed) above
Method: HEK 293 cells stably expressing tetracycline inducible α4β3N-Flag-δ or N-Flag-α4β3 GABAA receptors were cultured on glass coverslips and induced with tetracycline (2μg/ml) 24 hours before recordings. The coverslips were placed in a recording chamber and perfused with the bath solution. Cells were voltage clamped at -50 mV using the patch clamp amplifier (Axopatch 200A, Molecular Devices, Sunnyvale, CA). GABAA receptor-mediated chloride currents from HEK cells were recorded using the whole-cell configuration of patch-clamp electrophysiology. Data was acquired using Clampex version 8.1 (Molecular Devices), digitized at 10 kHz and filtered at 5 kHz. Current traces were analyzed using Clampfit version 9 (Molecular Devices). Series resistance ranged from 0.5–4 MΩ and cell capacitances from 9–18 pF. Membrane-capacitance and series-resistance were compensated electronically by > 85% with a lag of 10 μ seconds. […]
Statistical analysis for electrophysiology was done using GraphPad Prism 6. […] For Western blotting, the ratio of the signal intensity of individual antibodies for each sample was determined. Pooled (weighted) mean and standard deviation was determined for each receptor and p value determined by two-tailed unpaired Student’s t-test, using GraphPad QuickCalcs software.

[1] = biological target: T3, α4β3N-Flag-δ GABAA receptor in native membranes (Homo sapiens, UniProt O14764+P28472+P48169); assay: [3H]muscimol binding (filtration assay) to cell membranes
T3 construct: expressed in transfected cells
T3 sequence (P48169 36-554): as the sequence (P48169 36-554) above
T3 sequence (P28472 26-473 isoform P28472-2 limits assumed): as the sequence (P28472 26-473 isoform P28472-2 limits assumed) above
T3 sequence (O14764 25-452): as the sequence (O14764 25-452) above
Method: Radioactive ligand binding assays were carried out as previously described, with the exception that GABAAR binding sites were assayed at 250 nM [^3H]muscimol because of this receptor’s higher affinity.
as §1
Fig 3 The binding isotherm of the agonist [^3H]muscimol to the α4β3N-Flag-δ GABAA receptor in native membranes and reconstituted into CHAPS/lipid micelles. Binding curves of [^3H]muscimol to α4β3N–Flag–δ GABAΑRs, both, in cell membranes (pmol/mg membrane protein) and after purification and reconstitution into micelles of 5 mM CHAPS and 200 μM DOPC:DOPS:Cholesterol in mole ratio 52:15:33 (pmol/mL). […] The displaceable binding and its standard deviation was determined by subtracting these two values and propagating errors at each total muscimol concentration. The curves were fitted by nonlinear least squares with weighting by standard deviation. These yielded apparent dissociation constants of 9.2 ± 0.6 and 35 ± 12 nM, respectively. The Bmax of the membranes was 22.6 ± 0.5 pmol/mg and for reconstituted receptors in micelles was 19 ± 3 pmol/mL. The Hill coefficients differed little from one (1.07 ± 0.3 and 0.90 ± 0.05 respectively).

[2] = biological target: T4, α4β3N-Flag-δ GABAA receptor reconstituted into CHAPS/lipid micelles (Homo sapiens, UniProt O14764+P28472+P48169); assay: [3H]muscimol binding to purified receptor reconstituted into CHAPS/lipid micelles
T4 construct: made in house; DDM solubilization, anti-Flag beads, elution with Flag peptide into CHAPS/lipid
T4 sequence (P48169 36-554): as the sequence (P48169 36-554) above
T4 sequence (P28472 26-473 isoform P28472-2 limits assumed): as the sequence (P28472 26-473 isoform P28472-2 limits assumed) above
T4 sequence (O14764 25-452): as the sequence (O14764 25-452) above
Method: Cells with inducible expression of N-Flag-α4β3 and α4β3N-Flag-δ were induced with tetracycline (1 μg/ml final concentration, Life Technologies) and 5 mM sodium butyrate (Sigma-Aldrich, St. Louis, MO) for 24 hours and harvested in 10 ml per ten 15 cm–dishes of 10 mM HEPES, 1 mM EDTA (buffer A) freshly supplemented with protease inhibitors and 1 mM PMSF (final concentration) at 4°C with all subsequent purification procedures carried out at 4°C. Cells were homogenized with three cycles of 10 s each separated by 30 s intervals (Ultra Turrax T25, IKA Works, Wilmington, NC), followed by 20 strokes in Kontes-Duval glass tissue grinder. Homogenate was centrifuged at 43,000 x g for 30 min at 4°C and the pellet was resuspended in the buffer A and the entire procedure repeated. The resulting pellet was resuspended in the buffer A and a final homogenization carried out by aspiration with a 21-gauge needle and expulsed through 27-gauge needle. Concentration of total protein was assessed with the Pierce BCA protein assay kit (Pierce, Rockford, IL). Under constant stirring, the membrane fraction was solubilized over 30 min by dropwise addition of 30 mM DDM (Anatrace, Maumee, OH) in buffer B (50 mM Tris/HCl, 150 mM NaCl, 2 mM CaCl2, 5 mM KCl, 5 mM MgCl2, 4 mM EDTA, pH 7.5) and 10% glycerol, supplemented with protease inhibitors and 1 mM PMSF, with the volume adjusted to produce an effective protein concentration of 1 mg/ml. Following an additional 2 hours of solubilization, the solution was centrifuged at 45,000 x g for 30 min at 4°C. Insoluble material in the pellet was discarded and the supernatant was stored in liquid nitrogen overnight.
After washing once with buffer B, 2 ml of Flag beads (Sigma-Aldrich) were pre-treated overnight at 4°C on polypropylene columns (Qiagen, Hilden, Germany) with 1.5 ml of 10 mg/ml poly-d-Lysine hydrobromide with gentle agitation. On the following day, beads were washed three times with six 2–ml volumes of buffer B with 10% glycerol and incubated with solubilized membrane fractions with gentle agitation for 2 hours. Once transferred back into propylene columns, beads were washed once with wash buffer (17 mM CHAPS, 8.5 mM asolectin in buffer B with 10% glycerol, homogenized with glass grinder and sonicated for 10 min), equilibrated with the same buffer for 1 hour with agitation and washed again. Two more washes with elution buffer (5 mM CHAPS, 200 μM asolectin in buffer B with 10% glycerol, prepared as with wash buffer) were performed prior to elution of receptors by incubation with two x 2–ml of elution buffer supplemented with 0.15 mg/ml of Flag peptide (Sigma-Aldrich) for 2 hours with gentle rocking (elution 1). Second elution (elution 2) and another overnight incubation with 2–ml (elution 3) followed.
[…] […] […] […] The curves were fitted by nonlinear least squares with weighting by standard deviation. These yielded apparent dissociation constants of 9.2 ± 0.6 and 35 ± 12 nM, respectively. The Bmax of the membranes was 22.6 ± 0.5 pmol/mg and for reconstituted receptors in micelles was 19 ± 3 pmol/mL. The Hill coefficients differed little from one (1.07 ± 0.3 and 0.90 ± 0.05 respectively).

α4β3δ receptors = settings: cited from earlier work
[3] = test system: concatenated subunits β3-α1-δ/β3-α1; settings: cited from earlier work
α4β3γ2 receptors = settings: cited from earlier work
α1β3δ GABAARs = test system: α1β3δ GABAARs; design: method as in PMID 27493204; settings: cited from earlier work; for degree of desensitization: in 4 seconds
[4] = 2 nM [3H]muscimol, reconstituted
[5] = after 8.5 ms pulse of 100 μM GABA, two exponentials
[6] = linear fit of activation rate up to ~10 μM GABA
[7] = CHAPS/DOPC:DOPS:Cholesterol micelles

## O=C(Nc1c(-c2cccs2)nc2ccccn12)c1ccc(Cl)cc1 [DS2]
α4β3N–Flag–δ GABAAR; 10 mM GABA
  enhancement of maximum GABA elicited currents: 230 ± 63%
N–Flag–α4β3 receptors
  enhancement of maximum GABA elicited currents: 12 ± 7%
[1]; 2 nM [3H]muscimol, membranes
  Hill coefficient of modulation of [3H]muscimol binding: 0.9 ± 0.2
  maximum modulation of [3H]muscimol binding: 139 ± 4%
[1]; 2 nM [3H]muscimol, native membranes, read-out: EC50 of modulation of [3H]muscimol binding
  EC50: 2000 ± 700 nM
[1]; DS2 30 μM, [3H]muscimol 2 nM, membranes
  enhancement of displaceable [3H]muscimol binding: 142 ± 12%
[2]; 2 nM [3H]muscimol, CHAPS/PC:PS:Cholesterol micelles, read-out: EC50 of modulation of [3H]muscimol binding
  EC50: 2300 ± 800 nM
[2]; [4]
  Hill coefficient of modulation of [3H]muscimol binding: 1.2 ± 0.5
  maximum modulation of [3H]muscimol binding: 132 ± 4%
[2]; DS2 30 μM, [3H]muscimol 2 nM, CHAPS/lipid micelles
  enhancement of displaceable [3H]muscimol binding: 128 ± 11%

## NCCCC(=O)O [GABA, γ-aminobutyric acid]
α4β3δ receptors; 100 μM GABA
  desensitization time constant τ: 4.8 s
  rise time: ~ 100 ms
α4β3δ receptors; lower time resolution perfusion system
  deactivation time constant: ~ 400 ms
α4β3N–Flag–δ GABAAR; 0.1 μM GABA
  activation time constant τ: 165 ± 20 ms
α4β3N–Flag–δ GABAAR; 100 μM GABA
  activation time constant τ: 6 ± 1 ms
α4β3N–Flag–δ GABAAR; 10 mM GABA, assumes 10 mM GABA + 10 μM etomidate opens 100% of channels
  fraction of available channels opened (efficacy of GABA): 17 ± 6%
α4β3N–Flag–δ GABAAR; 8-sec exposure to GABA 1–100 μM, all concentrations averaged
  desensitization time constant τ: 2.6 ± 0.9 s
α4β3N–Flag–δ GABAAR; after 8.5 ms pulse of 100 μM GABA
  fraction of total current decay amplitude occupied by fastest phase: 76 ± 12%
α4β3N–Flag–δ GABAAR; [5]
  deactivation time constant, fastest phase: 175 ± 50 ms
  deactivation time constant, slow phase: 1100 ± 440 ms
α4β3N–Flag–δ GABAAR; in 4 seconds at 100 μM GABA
  degree of desensitization: ~ 70%
α4β3N–Flag–δ GABAAR; [6]
  k+1 apparent forward GABA binding rate: 5.7 ± 0.2 x 10^6 s^–1M^–1
  k–1 apparent reverse GABA binding rate: 5 ± 1 s^–1
α4β3N–Flag–δ GABAAR; peak currents normalized to 10 mM GABA
  Hill coefficient of GABA concentration-response curve: 1.5 ± 0.24
[3]; 1 mM GABA
  desensitization time constant: 4.7 s
[3]; after 4 s at 1 mM GABA
  degree of desensitization: ~ 40%
[3]
  deactivation time constant: ~ 50 ms
α4β3γ2 receptors
  k+1 apparent forward GABA binding rate: 6 x 10^6 s^–1M^–1
α1β3δ GABAARs; 1 mM GABA, depending on the construct ratio
  10–90% rise times: 4 to 22 ms
α1β3δ GABAARs; construct ratio 1:1:0.3
  deactivation rate (time): ~ 170 ms
α1β3δ GABAARs; much lower transfection ratios
  degree of desensitization: 40–70%
α1β3δ GABAARs; transfection ratios similar to the authors'
  degree of desensitization: little desensitization
α1β3δ GABAARs; varied with ratio of constructs transfected
  deactivation rate (time): 100 to 200 ms

## NCc1cc(=O)[nH]o1 [[^3H]muscimol]
[1]; cell membranes
  Bmax (sites per mg of membrane protein): 22.6 ± 0.5 pmol/mg
[1]; higher than in previously developed α1β3γ2 cell line (refs 13, 26)
  apparent affinity relative to α1β3γ2 GABAAR cell line: 5 fold
[1]; read-out: apparent dissociation constant (EC50 of binding isotherm)
  EC50: 9.2 ± 0.6 nM
[2]; 5 mM CHAPS and 200 μM DOPC:DOPS:Cholesterol 52:15:33 micelles, read-out: apparent dissociation constant
  Kd: 35 ± 12 nM
[2]; [7]
  Bmax: 19 ± 3 pmol/mL
  Hill coefficient of binding isotherm: 0.90 ± 0.05

## CCOC(=O)c1cncn1[C@H](C)c1ccccc1 [etomidate]
α4β3N–Flag–δ GABAAR; 10 mM GABA
  enhancement of maximum GABA elicited currents: 540 ± 235%
N–Flag–α4β3 receptors
  enhancement of maximum GABA elicited currents: 490 ± 84%

## picrotoxin
α4β3N–Flag–δ GABAAR; 2 mM picrotoxin for 8 s, relative to current with 10 mM GABA + 10 μM etomidate
  fraction of spontaneously open receptors (picrotoxin-inhibited current): about 3.2 ± 0.6%
